Where a name gives a salt, the structure may show the parent alone. Each block holds one compound with its values, some of them ahead of it.
Tests used:
[1] = PAMPA with HA-200 (0.1 w/v%) as acceptor medium; details: HA (HA-200, HA-855; 0.1 w/v%) as acceptor-phase component; very low permeability and interference of HA with absorbance signal
[2] = Solubility in PBS buffer (pH 7.4) for PAMPA donor solutions; assay type: physicochemical; details: PBS pH 7.4; used at 100 µM instead of 250 µM nominal concentration
[3] = PAMPA with HA-855 + agar (HA 0.07 w/v%; agar 0.095 w/v%) as acceptor medium; details: for permeability decrease with HA-855 + agar compared with agar alone: cationic compounds, acceptor HA-855 + agar vs agar
Description: Finally, the solutions were stored at room temperature overnight.
(§1) For each assay 3 replicates per compounds were measured.
In their study three types of HA-agar hydrogels were investigated with various HA and agar content from rheological and particle migration aspects. Hyaluronate as a viscoelastic polymer is an essential part of the model (as a native component of the VH itself) while agar is used to achieve elasticity and so to mimic the properties of the naturally occurring collagen fibrils. As a result of their study, they found the hydrogel containing 0.7 mg/ml (0.07 w/v%) HA (high molecular weight) and 0.95 mg/ml (0.095 w/v%) agar to be the most similar to bovine VH in the above-mentioned experiments. Since they conducted no permeability measurements with this promising hydrogel, we tested it as an acceptor medium in the PAMPA measurements. To gain further insight, experiments using only agar-containing acceptor phase were also carried out, since the standalone effect of the high molecular weight Na-HA was already investigated.

[4] = Modified corneal-PAMPA, PBS as acceptor medium, UV-vis plate reader; assay type: in vitro ADME; details: general trend regardless of the acceptor medium
[5] = PAMPA with freshly excised porcine vitreous humor as acceptor medium; assay type: in vitro ADME; details: 250 µM API in PBS; UV detection; also after precipitation and filtering
Description: as §1
There has been an attempt made to use freshly excised porcine vitreous as acceptor medium in the experiments, for three APIs with sufficient absorption at a wavelength closer to the visible range (~ 300 nm) considering the cut-off of VH. […] When preparing the equilibrium solutions, one unit of API solution (250 µM, PBS) was mixed with (approximately) two units of VH. […] To gain clear spectra by removing background components, precipitation was attempted using cold acetonitrile, centrifugation, and filtration. […] The sample preparation process of VH containing samples was not further improved or investigated in this study.

solubility (qualitative) [2]: poor solubility
SMILES: C[C@@H]1C[C@H]2[C@@H]3CCC4=CC(=O)C=C[C@]4(C)[C@@]3(F)[C@@H](O)C[C@]2(C)[C@@]1(O)C(=O)CO [dexamethasone]
detection in the acceptor medium [1]: could not be detected in the acceptor medium

SMILES: CC(C)(C)NC[C@H](O)COc1nsnc1N1CCOCC1 [timolol, timolol maleate]
permeability decrease with HA-855 + agar compared with agar alone [3]: decrease the permeability in a greater extent than agar alone

SMILES: CC(C)NCC(O)COc1cccc2ccccc12 (centres unmarked) [propranolol HCl, propranolol hydrochloride]
permeability decrease with HA-855 + agar compared with agar alone [3]: decrease the permeability in a greater extent than agar alone

permeability (qualitative) [4]: low permeability | detection of API in porcine vitreous humor acceptor medium [5]: no API could be detected
SMILES: COc1c(N2C[C@@H]3CCCN[C@@H]3C2)c(F)cc2c(=O)c(C(=O)O)cn(C3CC3)c12 [moxifloxacin, moxifloxacin hydrochloride]

SMILES: N=C(N)c1ccc(OCCCOc2ccc(C(=N)N)cc2)cc1 [propamidine]
detection in the acceptor medium [1]: could not be detected in the acceptor medium

SMILES: CCN(CC)CCCC(C)Nc1ccnc2cc(Cl)ccc12 (centres unmarked) [chloroquine diphosphate]
permeability decrease with HA-855 + agar compared with agar alone [3]: decrease the permeability in a greater extent than agar alone

SMILES: CNC(=C[N+](=O)[O-])NCCSCc1ccc(CN(C)C)o1 [ranitidine, ranitidine hydrochloride]
detection in the acceptor medium [1]: could not be detected in the acceptor medium

SMILES: CCCCOc1cc(C(=O)OCCN(CC)CC)ccc1N [oxybuprocaine HCl, oxybuprocaine hydrochloride]
permeability decrease with HA-855 + agar compared with agar alone [3]: decrease the permeability in a greater extent than agar alone

SMILES: CCCCNc1ccc(C(=O)OCCN(C)C)cc1 [tetracaine HCl, tetracaine hydrochloride]
permeability decrease with HA-855 + agar compared with agar alone [3]: decrease the permeability in a greater extent than agar alone

SMILES: CNCC[C@H](Oc1cccc2ccccc12)c1cccs1 [duloxetine HCl, duloxetine hydrochloride]
permeability decrease with HA-855 + agar compared with agar alone [3]: decrease the permeability in a greater extent than agar alone

permeability (qualitative) [4]: low permeability | detection of API in porcine vitreous humor acceptor medium [5]: no API could be detected
SMILES: O=C(c1ccccc1)c1ccc2n1CCC2C(=O)O (centres unmarked) [ketorolac]

direction of permeability change against corneal-PAMPA (PBS) ([3]; acceptor HA-855 + agar): significant increase
SMILES: O=C(O)Cc1ccccc1Nc1c(Cl)cccc1Cl [diclofenac Na]

SMILES: CCn1cc(C(=O)O)c(=O)c2cc(F)c(N3CCNCC3)nc21 [enoxacin]
detection in the acceptor medium [1]: could not be detected in the acceptor medium

solubility (qualitative) [2]: poor solubility
SMILES: NC(=O)N1c2ccccc2C=Cc2ccccc21 [carbamazepine]
